The source made the active and inactive calls. No cut-off for these calls is given here.
Key:
[1] = system: Rattus norvegicus; test: Antiulcer activity in albino Sprague-Dawley rat shay ulcer model assessed as ulcer index scores at 40 mg/kg administered intraduodenally post pyloric ligation measured after 18.5 hrs relative to vehicle-treated control; format: functional; details: route intraduodenal
[2] = system: Rattus norvegicus; test: Antiulcer activity in albino Sprague-Dawley rat shay ulcer model assessed as ulcer index scores at 50 mg/kg administered intraduodenally post pyloric ligation measured after 18.5 hrs relative to vehicle-treated control; format: functional; details: route intraduodenal
[3] = system: Rattus norvegicus; test: Antidiarrheal activity in Charles River rat assessed as inhibition of castor oil-induced diarrhea by measuring protected animals at 0.25 mg/kg, po administered 1 hr prior to castor oil challenge measured after 1 hr relative to vehicle-treated control; format: functional
[4] = system: Rattus norvegicus; test: Antisecretory activity in Sprague-Dawley rat assessed as decrease in acid output at 50 mg/kg, po administered 30 mins prior to pylorus ligation measured after 4 hrs relative to control; format: functional; parameters: scale not given: the % may be the effect or the level left
[5] = system: Rattus norvegicus; test: Antisecretory activity in Sprague-Dawley rat assessed as decrease in pepsin output at 50 mg/kg, po administered 30 mins prior to pylorus ligation measured after 4 hrs relative to control; format: functional; parameters: scale not given: the % may be the effect or the level left
[6] = species: Rattus norvegicus; test: animal or person; format: functional; details: Charles River, route oral
Description: Antidiarrheal activity in Charles River rat assessed as inhibition of castor oil-induced diarrhea by measuring protected animals at 0.5 mg/kg, po administered 1 hr prior to castor oil challenge measured after 1 hr relative to vehicle-treated control

[7] = species: Rattus norvegicus; test: animal or person; format: functional; details: Charles River, route oral; remark: listed apart in the source
Description: Antidiarrheal activity in Charles River rat assessed as inhibition of castor oil-induced diarrhea by measuring protected animals at 1 mg/kg, po administered 1 hr prior to castor oil challenge measured after 1 hr relative to vehicle-treated control

[8] = system: Rattus norvegicus; test: Antiulcer activity in albino Sprague-Dawley rat stress ulcer model assessed as prevention of stress-induced gastric lesions by measuring ulcer index score at 10 mg/kg, po administered 30 mins prior to stress measured after 4 hrs; format: functional, Stomach
[9] = system: Rattus norvegicus; test: Antiulcer activity in albino Sprague-Dawley rat reserpine ulcer model assessed as prevention of reserpine-induced gastric lesions by measuring ulcer index scores at 10 mg/kg, po administered 30 mins prior to reserpine challenge measured after 6 hrs; format: functional; details: Stomach
[10] = system: Rattus norvegicus; test: Antiulcer activity in albino Sprague-Dawley rat shay ulcer model assessed as ulcer index scores at 20 mg/kg administered intraduodenally post pyloric ligation measured after 18.5 hrs relative to vehicle-treated control; format: functional; details: route intraduodenal
[11] = Acute toxicity in po dosed mouse; format: organism-based; details: in vivo
[12] = system: Rattus norvegicus; test: Antiulcer activity in albino Sprague-Dawley rat stress ulcer model assessed as prevention of stress-induced gastric lesions by measuring ulcer index score at 40 mg/kg, po administered 30 mins prior to stress measured after 4 hrs; format: functional, Stomach
[13] = system: Rattus norvegicus; test: Antiulcer activity in albino Sprague-Dawley rat reserpine ulcer model assessed as prevention of reserpine-induced gastric lesions by measuring ulcer index scores at 50 mg/kg, po administered 30 mins prior to reserpine challenge measured after 6 hrs; format: functional, Stomach
[14] = system: Rattus norvegicus; test: Antipsychotic activity in rat assessed as reduction of methamphetamine-induced hyperactivity at 10 mg/kg, po administered prior to methamphetamine challenge relative to vehicle-treated control; format: functional; parameters: scale not given: the % may be the effect or the level left
[15] = system: Mus musculus; test: Antidepressant activity in po dosed mouse assessed as potentiation of DOPA-induced effect administered 4 hrs prior to DOPA challenge; format: functional; details: read-out: MED
[16] = system: Rattus norvegicus; test: Antihypertensive activity in spontaneously hypertensive rat model assessed as reduction in blood pressure at 10 mg/kg, po after 3 hrs; format: functional; parameters: scale not given: the % may be the effect or the level left
[17] = system: Rattus norvegicus; test: Antihypertensive activity in spontaneously hypertensive rat model assessed as reduction in blood pressure at 10 mg/kg, po after 24 hrs; format: functional; parameters: scale not given: the % may be the effect or the level left
[18] = system: Rattus norvegicus; test: Antihypertensive activity in spontaneously hypertensive rat model assessed as reduction in blood pressure at 3 mg/kg, po after 3 hrs; format: functional; parameters: scale not given: the % may be the effect or the level left
[19] = system: Rattus norvegicus; test: Antihypertensive activity in spontaneously hypertensive rat model assessed as reduction in blood pressure at 3 mg/kg, po after 24 hrs; format: functional; parameters: scale not given: the % may be the effect or the level left
[20] = system: Felis catus; test: Hypnotic activity in cat assessed as increase in total sleep time at 1 mg/kg administered orally through diet measured for 12 hrs by EEG analysis; format: functional; details: route oral
[21] = system: Felis catus; test: Hypnotic activity in cat assessed as increase in total sleep time at 0.5 mg/kg administered orally through diet measured for 12 hrs by EEG analysis; format: functional; details: route oral
[22] = system: Felis catus; test: Hypnotic activity in cat assessed as decrease in total sleep time at 0.025 mg/kg administered orally through diet measured for 12 hrs by EEG analysis; format: functional; details: route oral
[23] = system: Felis catus; test: Hypnotic activity in cat assessed as increase in total sleep time at 0.1 mg/kg administered orally through diet measured for 12 hrs by EEG analysis; format: functional; details: route oral
[24] = system: Felis catus; test: Hypnotic activity in cat assessed as increase in total sleep time at 0.25 mg/kg administered orally through diet measured for 12 hrs by EEG analysis; format: functional; details: route oral
[25] = system: Felis catus; test: Hypnotic activity in cat assessed as increase in non-REM sleep time at 0.5 mg/kg administered orally through diet measured for 12 hrs by EEG analysis; format: functional; details: route oral
[26] = system: Felis catus; test: Hypnotic activity in cat assessed as increase in non-REM sleep time at 0.025 mg/kg administered orally through diet measured for 12 hrs by EEG analysis; format: functional; details: route oral
[27] = system: Felis catus; test: Hypnotic activity in cat assessed as increase in non-REM sleep time at 0.1 mg/kg administered orally through diet measured for 12 hrs by EEG analysis; format: functional; details: route oral
[28] = system: Felis catus; test: Hypnotic activity in cat assessed as increase in non-REM sleep time at 0.25 mg/kg administered orally through diet measured for 12 hrs by EEG analysis; format: functional; details: route oral
[29] = system: Rattus norvegicus; test: Antisecretory activity in Sprague-Dawley rat assessed as decrease in volume at 50 mg/kg, po administered 30 mins prior to pylorus ligation measured after 4 hrs relative to control; format: functional; parameters: scale not given: the % may be the effect or the level left
[30] = system: Rattus norvegicus; test: Antisecretory activity in Sprague-Dawley rat assessed as decrease in acidity at 50 mg/kg, po administered 30 mins prior to pylorus ligation measured after 4 hrs relative to control; format: functional; parameters: scale not given: the % may be the effect or the level left
[31] = system: Mus musculus; test: Analgesic activity in po dosed mouse assessed as inhibition of acetic acid-induced writhing administered 30 mins prior to acetic acid challenge measured after 5 mins for 20 mins; format: functional
[32] = system: Rattus norvegicus; test: Antianxiety activity in Long-Evans rat assessed as reduction in motor activity at 1 mg/kg, po after 2 hrs relative to vehicle-treated control; format: functional; parameters: scale not given: the % may be the effect or the level left
[33] = system: Mus musculus; test: Antianxiety activity in albino BALB/cJ mouse assessed as reduction in footshock-induced fighting behavior at 10 mg/kg, po after 30 to 90 mins; format: functional; parameters: scale not given: the % may be the effect or the level left
[34] = system: Mus musculus; test: Antianxiety activity in albino BALB/cJ mouse assessed as reduction in footshock-induced fighting behavior at 1 mg/kg, po after 30 to 90 mins; format: functional; parameters: scale not given: the % may be the effect or the level left
[35] = system: Rattus norvegicus; test: Antianxiety activity in Long-Evans rat assessed as reduction in motor activity at 10 mg/kg, po after 2 hrs relative to vehicle-treated control; format: functional; parameters: scale not given: the % may be the effect or the level left
[36] = system: Rattus norvegicus; test: Antianxiety activity in Long-Evans rat assessed as reduction in motor activity at 0.5 mg/kg, po after 2 hrs relative to vehicle-treated control; format: functional; parameters: scale not given: the % may be the effect or the level left
[37] = system: Canis familiaris; test: Antianxiety activity in po dosed dog assessed as ataxia administered as single dose measured up to 24 hrs; format: functional; details: Canis lupus familiaris, read-out: MED
[38] = system: Rattus norvegicus; test: Antipsychotic activity in rat assessed as reduction of methamphetamine-induced hyperactivity at 5 mg/kg, po administered prior to methamphetamine challenge relative to vehicle-treated control; format: functional; parameters: scale not given: the % may be the effect or the level left
[39] = system: Rattus norvegicus; test: Analgesic activity in po dosed Sprague-Dawley rat after 15 to 90 mins by tail flick test; format: functional
[40] = system: Rattus norvegicus; test: Antianxiety activity in Long-Evans rat assessed as reduction in motor activity at 100 mg/kg, po after 2 hrs relative to vehicle-treated control; format: functional; parameters: scale not given: the % may be the effect or the level left
[41] = system: Rattus norvegicus; test: Increase in acid output in Sprague-Dawley rat at 50 mg/kg, po administered 30 mins prior to pylorus ligation measured after 4 hrs relative to control; format: functional
[42] = system: Rattus norvegicus; test: Antisecretory activity in Sprague-Dawley rat assessed as decrease in pepsin concentration at 50 mg/kg, po administered 30 mins prior to pylorus ligation measured after 4 hrs relative to control; format: functional; parameters: scale not given: the % may be the effect or the level left
[43] = system: Rattus norvegicus; test: Increase in pepsin output in Sprague-Dawley rat at 50 mg/kg, po administered 30 mins prior to pylorus ligation measured after 4 hrs relative to control; format: functional
[44] = system: Rattus norvegicus; test: Increase in methamphetamine-induced hyperactivity in rat at 5 mg/kg, po administered prior to methamphetamine challenge relative to vehicle-treated control; format: functional
[45] = system: Rattus norvegicus; test: Antihypertensive activity in spontaneously hypertensive rat model assessed as reduction in blood pressure at 30 mg/kg, po after 3 hrs; format: functional; parameters: scale not given: the % may be the effect or the level left
[46] = system: Rattus norvegicus; test: Antihypertensive activity in spontaneously hypertensive rat model assessed as reduction in blood pressure at 30 mg/kg, po after 24 hrs; format: functional; parameters: scale not given: the % may be the effect or the level left
[47] = system: Rattus norvegicus; test: Increase in volume in Sprague-Dawley rat at 50 mg/kg, po administered 30 mins prior to pylorus ligation measured after 4 hrs relative to control; format: functional
[48] = system: Mus musculus; test: Analgesic activity in mouse assessed as inhibition of acetic acid-induced writhing at 100 mg/kg, po administered 30 mins prior to acetic acid challenge measured after 5 mins for 20 mins; format: functional
[49] = system: Rattus norvegicus; test: Increase in motor activity in Long-Evans rat at 5 mg/kg, po after 2 hrs relative to vehicle-treated control; format: functional
[50] = system: Mus musculus; test: Analgesic activity in mouse assessed as inhibition of acetic acid-induced writhing at 10 mg/kg, po administered 30 mins prior to acetic acid challenge measured after 5 mins for 20 mins; format: functional
[51] = system: Rattus norvegicus; test: Increase in motor activity in Long-Evans rat at 10 mg/kg, po after 2 hrs relative to vehicle-treated control; format: functional

C#CCN1CCC2=C(C1)c1c(O)cc(C(C)C(C)CCCCC)cc1OC2(C)C (centres undefined)
UI [1]: 0.3
UI [2]: 0.5
inhibition in vivo at 0.25 mg/kg [3]: 20%
Activity [4]: 49.8%
Activity [5]: 41.9%
inhibition in vivo at 0.5 mg/kg [6]: 63%
inhibition in vivo at 1 mg/kg [7]: 100%
UI [8]: 1.3
Activity [9]: inactive
UI [10]: 4.2
LD50 [11]: ≥ 1000 mg/kg
UI [12]: 1.6
UI [13]: 1.8
Activity [14]: 74%
minimal effective dose [15]: 2 mg/kg
Activity [16]: 23%
Activity [17]: 27%
Activity [18]: 7%
Activity [19]: 4%
Time [20]: 39 min
Time [21]: 44 min
Time [22]: -12 min
Time [23]: 100 min
Time [24]: 56 min
Time [25]: 28 min
Time [26]: 25 min
Time [27]: 62 min
Time [28]: 21 min
Activity [29]: 39.3%
Activity [30]: 23.5%
ED50 [31]: 4.3 mg/kg
Activity [32]: 71%
Activity [33]: 62%
Activity [34]: 42%
Activity [35]: 75%
Activity [36]: 35%
minimal effective dose [37]: 1 mg/kg
Activity [38]: 52%

CC(C)=CCN1CC[C@]2(C)c3cc(O)ccc3C[C@H]1[C@H]2C [(+)-PENTAZOCINE]
inhibition in vivo at 0.5 mg/kg [6]: 0%
ED50 [31]: 37.6 mg/kg
ED50 [39]: 60 mg/kg
Activity [35]: 30%
Activity [40]: 64%

C#CCN1CCC2=C(C1)c1c(O)cc(CCCCC)cc1OC2(C)C
Activity [41]: 6.1%
Activity [42]: 8.3%
Activity [43]: 18.3%
LD50 [11]: ≥ 1000 mg/kg
Activity [44]: 47%
Activity [45]: 0%
Activity [46]: 9%
Time [21]: 28 min
Time [25]: 12 min
Activity [47]: 24.6%
Activity [30]: 14.8%
inhibition in vivo at 100 mg/kg [48]: 19%
Activity [33]: 6%
Activity [49]: 6%

C#CCN1CCC2=C(C1)c1c(O)cc(C(C)CCc3ccc(F)cc3)cc1OC2(C)C (centres undefined)
LD50 [11]: ≥ 1000 mg/kg
Activity [14]: 0%
Activity [45]: 4%
Activity [46]: 13%
inhibition in vivo at 10 mg/kg [50]: 10%
Activity [33]: 0%
Activity [51]: 44%

Reference: ChEMBL document CHEMBL3272295, “Drugs derived from cannabinoids. 5. delta6a,10a-Tetrahydrocannabinol and heterocyclic analogs containing aromatic side chains” (J Med Chem, 1976)
